Experimental data reported in ChEMBL document CHEMBL5029195, “Substituted Imidazole Carboxamides as Novel Antibacterial Agents” (2022).

Tested on: Acinetobacter baumannii
Assay: Antibacterial activity against Acinetobacter baumannii ATCC 17961 assessed as inhibition of bacterial growth after 16 hrs by two fold dilution method
Assay type: functional

Structure (SMILES)	IC90
COc1ccc(-c2cnc(C(=O)Nc3ccc(C(=O)N4CCC(OCCN)CC4)c(Cl)c3)n2C)c(F)c1F	40 nM
COc1ccc(-c2cnc(C(=O)Nc3ccc(C(=O)N4CCC(C(=O)NCCC(=O)O)CC4)c(Cl)c3)n2C)c(F)c1F	3300 nM
Cn1c(-c2ccc(OC(F)F)c(F)c2F)cnc1C(=O)Nc1ccc(C(=O)N2CCC(C(=O)NC[C@H]3CCNC3)CC2)c(Cl)c1	40 nM
COc1ccc(-c2cnc(C(=O)Nc3ccc(C(=O)N4CCC(CCN)CC4)c(Cl)c3)n2C)c(F)c1F	30 nM
CCc1cc(NC(=O)c2ncc(-c3ccc(OC)c(F)c3F)n2C)ccc1C(=O)N1CCN(CCCN(C)C)CC1	260 nM
COc1ccc(-c2cnc(C(=O)Nc3ccc(C(=O)N4CCC(C(=O)[C@H]5CCNC[C@H]5O)CC4)c(Cl)c3)n2C)c(F)c1F	90 nM
Cn1c(-c2ccc(OC(F)F)c(F)c2F)cnc1C(=O)Nc1ccc(C(=O)N2CCC(C(=O)N3CCC(C(N)=O)C3)CC2)c(Cl)c1 (centres undefined)	150 nM
COc1ccc(-c2cnc(C(=O)Nc3ccc(C(=O)N4CCC(C(=O)[C@@H]5CCNC[C@H]5O)CC4)c(Cl)c3)n2C)c(F)c1F	100 nM

Tested on: Acinetobacter baumannii
Assay: Antibacterial activity against Acinetobacter baumannii ATCC 17978 assessed as inhibition of bacterial growth after 16 hrs by two fold dilution method
Assay type: functional

Structure (SMILES)	IC90
CNCCN1CCN(C(=O)c2ccc(NC(=O)c3ncc(-c4ccc(OC)c(F)c4F)n3C)cc2Cl)CC1	80 nM
CCc1cc(NC(=O)c2ncc(-c3ccc(OC)cc3Cl)n2C)ccc1C(=O)N1CCN(CCNC)CC1	2300 nM
COc1ccc(-c2cnc(C(=O)Nc3ccc(C(=O)N4CCC(CN)CC4)c(Cl)c3)n2C)c(F)c1F	300 nM
CN(C)CCCN1CCN(C(=O)c2ccc(NC(=O)c3ncc(-c4ccc(OCC#N)c(F)c4F)n3C)cc2Cl)CC1	70 nM
COc1ccc(-c2cnc(C(=O)Nc3ccc(C(=O)N4CCN(C(=O)[C@@H]5C[C@@H](O)CN5)CC4)c(Cl)c3)n2C)c(F)c1F	100 nM
Cn1c(-c2ccc(OCC#N)c(F)c2F)cnc1C(=O)Nc1ccc(C(=O)N2CCC(C(=O)N3CCSCC3)CC2)c(Cl)c1	210 nM
